Test results taken from US7872003B2, “Pharmaceutical compounds” (F. Hoffmann-La Roche AG, priority 2005, dated 2011).

Test system: Caco-2 cells
Test: Caco-2 permeability
Assay type: in vitro ADME
Conditions: bidirectional Caco-2 assay; values >/=1.0 indicate active cellular efflux
Experimental: (iii) Caco-2 Permeability
Caco-2 cells were seeded onto Millipore Multiscreen plates at 1×10^5 cells/cm^2, and were cultured for 20 days. Assessment of compound permeability was subsequently conducted. The compounds were applied to the apical surface (A) of cell monolayers and compound permeation into the basolateral (B) compartment was measured. This was performed in the reverse direction (B−A) to investigate active transport. A permeability coefficient value, Papp, for each compound, a measure of the rate of permeation of the compound across the membrane, was calculated. Compounds were grouped into low (Papp</=[…]) or high (Papp>/=[…]) absorption potential based on comparison with control compounds with established human absorption.
For assessment of a compound's ability to undergo active efflux, the ratio of basolateral (B) to apical (A) transport compared with A to B was determined. Values of B−A/A−B>/=1.0 indicated the occurrence of active cellular efflux. All of the compounds tested through the Caco-2 permeability screen had Papp values>/=1.0×10^6 cm/s.

B−A/A−B asymmetry index: less than 1.0
Structure (SMILES): CN1CCN(Cc2cc3nc(-c4cccc(O)c4)nc(N4CCOCC4)c3s2)CC1 [PI540]
